Experimental findings from US12655125B2 (SIRONAX LTD., priority 2020, dated 2026) are described below.

Usually pEC50 stands for the EC50 on a negative log10 scale, so that one unit is a factor of ten.

The experiment relates to HT-29 cells. Description: HT29 Cells 0FBS Assay In Vitro (TNF-α/SMAC mimetic/zVAD-FMK induced necroptosis, CellTiter-Glo cell viability). Format: cell-based. The following applies: Homo sapiens. In a few lines: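 Viability was measured by ATP luminescence (CellTiter-Glo) after 20 h at 37° C of compound exposure in 10-point, 1:3 dilutions. Necroptosis in FBS-free HT-29 cultures was driven by a TNF-α (10 ng/ml), SMAC mimetic (6 μM) and zVAD-FMK (10 μM) cocktail. EC50 values are geometric means from duplicate curves.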
(Cellular ATP, detected with luciferase, serves as a proxy for viable cell number.)

Where [1] appears, read: HT-29 cells, FBS free medium, TNF-α (10 ng/ml), SMAC mimetic (6 uM), zVAD-FMK (10 μM), 20 hours, geometric mean EC50, read-out: Cell activity (EC50) of Compounds 1-116.
Setting [2] is: HT-29 cells, FBS free medium, TNF-α (10 ng/ml), SMAC mimetic (6 uM), zVAD-FMK (10 μM), 20 hours, geometric mean EC50, read-out: Cell activity (EC50) of Compounds 117-281.

pEC50: −log10 of the molar value. Like-named read-outs stand apart in the source and are kept apart here.

Regarding `Cn1ncc(Cl)c1-c1ncc(F)c(OC2CN(C(=O)N3N=CC[C@H]3c3cc(F)cc(F)c3)C2)n1` [compound 84, (S)-(3-((2-(4-chloro-1-methyl-1H-pyrazol-5-yl)-5-fluoropyrimidin-4-yl)oxy)azetidin-1-yl)(5-(3,5-difluorophenyl)-4,5-dihydro-1H-pyrazol-1-yl)methanone], under setting [1], the pEC50 is 7.00 to 10.00.

On to `CC(C)C(=O)Nc1cnn(C)c1-c1cc(OC2CN(C(=O)N3N=CC[C@H]3c3cc(F)cc(F)c3)C2)c(F)cn1` [compound 59, (S)—N-(5-(4-((1-(5-(3,5-difluorophenyl)-4,5-dihydro-1H-pyrazole-1-carbonyl)azetidin-3-yl)oxy)-5-fluoropyridin-2-yl)-1-methyl-1H-pyrazol-4-yl)isobutyramide], for which the pEC50 under setting [1] was 7.00 to 10.00.

Take `COC(=O)Cn1nc(C)c(-c2cc(OC3CN(C(=O)N4N=CC[C@H]4c4cc(F)cc(F)c4)C3)c(F)cn2)c1C` [compound 118, methyl (S)-2-(4-(4-((1-(5-(3,5-difluorophenyl)-4,5-dihydro-1H-pyrazole-1-carbonyl)azetidin-3-yl)oxy)-5-fluoropyridin-2-yl)-3,5-dimethyl-1H-pyrazol-1-yl)acetate]: the pEC50 under setting [2] was 5.00 to 6.00.

With `Cc1nscc1-c1cc(OC2CN(C(=O)N3N=CC[C@H]3c3cc(F)cc(F)c3)C2)c(F)cn1` [compound 17, (S)-(5-(3,5-difluorophenyl)-4,5-dihydro-1H-pyrazol-1-yl)(3-((5-fluoro-2-(3-methylisothiazol-4-yl)pyridin-4-yl)oxy)azetidin-1-yl)methanone], the pEC50 under setting [1] was 7.00 to 10.00.

As for `Cc1nc(C)n(-c2cc(OC3CN(C(=O)N4N=CC[C@H]4c4cc(F)cc(F)c4)C3)c(F)cn2)c1C` [compound 152, (S)-(5-(3,5-difluorophenyl)-4,5-dihydro-1H-pyrazol-1-yl)(3-((5-fluoro-2-(2,4,5-trimethyl-11H-imidazol-1-yl)pyridin-4-yl)oxy)azetidin-1-yl)methanone], the pEC50 under setting [2] was 7.00 to 10.00.

As to `COCc1cnn(C)c1-c1cc(OC2CN(C(=O)N3N=CC[C@H]3c3cc(F)cc(F)c3)C2)c(F)cn1` [compound 80, (S)-(5-(3,5-difluorophenyl)-4,5-dihydro-1H-pyrazol-1-yl)(3-((5-fluoro-2-(4-(methoxymethyl)-1-methyl-1H-pyrazol-5-yl)pyridin-4-yl)oxy)azetidin-1-yl)methanone], the pEC50 under setting [1] is 7.00 to 10.00.

With `Cn1ncc(C(=O)O)c1-c1cc(OC2CN(C(=O)N3N=CC[C@H]3c3cc(F)cc(F)c3)C2)c(F)cn1` [compound 65, (S)-5-(4-((1-(5-(3,5-difluorophenyl)-4,5-dihydro-1H-pyrazole-1-carbonyl)azetidin-3-yl)oxy)-5-fluoropyridin-2-yl)-1-methyl-1H-pyrazole-4-carboxylic acid], the pEC50 under setting [1] is 5.00 to 6.00.

`Cc1noc(C)c1-c1ncc(F)c(OC2CN(C(=O)N3N=CC[C@H]3c3cc(F)cc(F)c3)C2)n1` [compound 20, (S)-(5-(3,5-difluorophenyl)-4,5-dihydro-1H-pyrazol-1-yl)(3-((2-(3,5-dimethylisoxazol-4-yl)-5-fluoropyrimidin-4-yl)oxy)azetidin-1-yl)methanone]: the pEC50 under setting [1] is 7.00 to 10.00.

Consider `Cc1c(N)nn(C)c1-c1cc(OC2CN(C(=O)N3N=CC[C@H]3c3cc(F)cc(F)c3)C2)c(F)cn1` [compound 101, (S)-(3-((2-(3-amino-1,4-dimethyl-11H-pyrazol-5-yl)-5-fluoropyridin-4-yl)oxy)azetidin-1-yl)(5-(3,5-difluorophenyl)-4,5-dihydro-1H-pyrazol-1-yl)methanone], for which, under setting [1], the pEC50 was 7.00 to 10.00.

Consider `Cc1nn(-c2cc(OC3CN(C(=O)N4N=CC[C@H]4c4cc(F)cc(F)c4)C3)c(F)cn2)c(C)c1S(=O)(=O)NC1CCOCC1` [compound 241, (S)-1-(4-((1-(5-(3,5-difluorophenyl)-4,5-dihydro-1H-pyrazole-1-carbonyl)azetidin-3-yl)oxy)-5-fluoropyridin-2-yl)-3,5-dimethyl-N-(tetrahydro-2H-pyran-4-yl)-1H-pyrazole-4-sulfonamide], for which, under setting [2], the pEC50 is 7.00 to 10.00.

On to `Cc1nn(-c2cc(OC3CN(C(=O)N4N=CC[C@H]4c4cc(F)cc(F)c4)C3)c(F)cn2)c(C)c1C(=O)N[C@H]1C[C@@H](O)C1` [compound 254, 1-(4-((1-((S)-5-(3,5-difluorophenyl)-4,5-dihydro-1H-pyrazole-1-carbonyl)azetidin-3-yl)oxy)-5-fluoropyridin-2-yl)-N-((1s,3s)-3-hydroxycyclobutyl)-3,5-dimethyl-1H-pyrazole-4-carboxamide], for which the pEC50 under setting [2] was 7.00 to 10.00.

`Cc1nn(C)c(C)c1-c1cc(OC2CN(C(=O)N3N=CC[C@H]3c3cc(F)cc(F)c3)C2)c(F)cn1` [compound 159, (S)-(5-(3,5-difluorophenyl)-4,5-dihydro-1H-pyrazol-1-yl)(3-((5-fluoro-2-(1,3,5-trimethyl-1H-pyrazol-4-yl)pyridin-4-yl)oxy)azetidin-1-yl)methanone]: the pEC50 under setting [2] was 7.00 to 10.00.

For the compound `Cc1ncsc1-c1ccc(F)c(OC2CN(C(=O)N3N=CC[C@H]3c3cc(F)cc(F)c3)C2)n1` [compound 10, (S)-(5-(3,5-difluorophenyl)-4,5-dihydro-1H-pyrazol-1-yl)(3-((3-fluoro-6-(4-methylthiazol-5-yl)pyridin-2-yl)oxy)azetidin-1-yl)methanone], the negative-log EC50 (pEC50) under setting [1] was 7.00 to 10.00.

On to `Cc1c(C#N)nn(C)c1-c1ccc(F)c(OC2CN(C(=O)N3N=CC[C@H]3c3cc(F)cc(F)c3)C2)n1` [compound 186, (S)-5-(6-((1-(5-(3,5-difluorophenyl)-4,5-dihydro-1H-pyrazole-1-carbonyl)azetidin-3-yl)oxy)-5-fluoropyridin-2-yl)-1,4-dimethyl-1H-pyrazole-3-carbonitrile], for which the pEC50 under setting [2] is 7.00 to 10.00.

Take `CN(C)Cc1cnn(C)c1-c1cc(OC2CN(C(=O)N3N=CC[C@H]3c3cc(F)cc(F)c3)C2)c(F)cn1` [compound 79, (S)-(5-(3,5-difluorophenyl)-4,5-dihydro-1H-pyrazol-1-yl)(3-((2-(4-((dimethylamino)methyl)-1-methyl-1H-pyrazol-5-yl)-5-fluoropyridin-4-yl)oxy)azetidin-1-yl)methanone]: the pEC50 (HT-29, 20 h, read-out: Cell activity (EC50) of Compounds 1-116) was 7.00 to 10.00.

As to `CN(C)c1cc(-c2cc(OC3CN(C(=O)N4N=CC[C@H]4c4cc(F)cc(F)c4)C3)c(F)cn2)n(C)n1` [compound 166, (S)-(5-(3,5-difluorophenyl)-4,5-dihydro-1H-pyrazol-1-yl)(3-((2-(3-(dimethylamino)-1-methyl-1H-pyrazol-5-yl)-5-fluoropyridin-4-yl)oxy)azetidin-1-yl)methanone], the pEC50 under setting [2] was 7.00 to 10.00.

On to `CNC(=O)CNc1cnn(C)c1-c1cc(OC2CN(C(=O)N3N=CC[C@H]3c3cc(F)cc(F)c3)C2)c(F)cn1` [compound 61, (S)-2-((5-(4-((1-(5-(3,5-difluorophenyl)-4,5-dihydro-1H-pyrazole-1-carbonyl)azetidin-3-yl)oxy)-5-fluoropyridin-2-yl)-1-methyl-1H-pyrazol-4-yl)amino)-N-methylacetamide], for which, under setting [1], the pEC50 is 7.00 to 10.00.

`Cc1nn(-c2cc(OC3CN(C(=O)N4N=CC[C@H]4c4cc(F)cc(F)c4)C3)c(F)cn2)c(C)c1C(=O)N[C@@H]1CCOC1` [compound 258, 1-(4-((1-((S)-5-(3,5-difluorophenyl)-4,5-dihydro-1H-pyrazole-1-carbonyl)azetidin-3-yl)oxy)-5-fluoropyridin-2-yl)-3,5-dimethyl-N—((R)-tetrahydrofuran-3-yl)-1H-pyrazole-4-carboxamide]: the pEC50 under setting [2] was 7.00 to 10.00.

Take `Cc1nc(C)n(-c2ccc(F)c(OC3CN(C(=O)N4N=CCC4c4cc(F)cc(F)c4)C3)c2)n1` (stereo not drawn) [compound 116]: the pEC50 under setting [1] is 7.00 to 10.00.

Regarding `Cc1nn(CC2CC2)c(C)c1-c1cc(OC2CN(C(=O)N3N=CC[C@H]3c3cc(F)cc(F)c3)C2)c(F)cn1` [compound 132, (S)-(3-((2-(1-(cyclopropylmethyl)-3,5-dimethyl-1H-pyrazol-4-yl)-5-fluoropyridin-4-yl)oxy)azetidin-1-yl)(5-(3,5-difluorophenyl)-4,5-dihydro-1H-pyrazol-1-yl)methanone], the negative-log EC50 (pEC50) under setting [2] is 7.00 to 10.00.

`Cc1nn(-c2cc(OC3CN(C(=O)N4N=CCC4c4cc(F)cc(F)c4)C3)c(F)cn2)c(C)c1C(N)=O` (stereo not drawn) [compound 234, 1-(4-((1-(5-(3,5-difluorophenyl)-4,5-dihydro-1H-pyrazole-1-carbonyl)azetidin-3-yl)oxy)-5-fluoropyridin-2-yl)-3,5-dimethyl-1H-pyrazole-4-carboxamide]: the pEC50 under setting [2] was 7.00 to 10.00.

Consider `Cc1c(NC(C)C)nn(C)c1-c1cc(OC2CN(C(=O)N3N=CC[C@H]3c3cc(F)cc(F)c3)C2)c(F)cn1` [compound 162, (S)-(5-(3,5-difluorophenyl)-4,5-dihydro-1H-pyrazol-1-yl)(3-((5-fluoro-2-(3-(isopropylamino)-1,4-dimethyl-1H-pyrazol-5-yl)pyridin-4-yl)oxy)azetidin-1-yl)methanone], for which the pEC50 under setting [2] is 7.00 to 10.00.

Regarding `Cc1nn(-c2cc(OC3CN(C(=O)N4N=CC[C@H]4c4cc(F)cc(F)c4)C3)c(F)cn2)c(C)c1CC#N` [compound 271, (S)-2-(1-(4-((1-(5-(3,5-difluorophenyl)-4,5-dihydro-1H-pyrazole-1-carbonyl)azetidin-3-yl)oxy)-5-fluoropyridin-2-yl)-3,5-dimethyl-1H-pyrazol-4-yl)acetonitrile], the pEC50 under setting [2] is 7.00 to 10.00.

Consider `Cn1cncc1-c1ccc(F)c(OC2CN(C(=O)N3N=CC[C@H]3c3cc(F)cc(F)c3)C2)n1` [compound 6, (S)-(5-(3,5-difluorophenyl)-4,5-dihydro-1H-pyrazol-1-yl)(3-((3-fluoro-6-(1-methyl-1H-imidazol-5-yl)pyridin-2-yl)oxy)azetidin-1-yl)methanone], for which the pEC50 under setting [1] is 7.00 to 10.00.
